Experimental data from PubChem BioAssay AID1963848 (Molecular Pharmacology Branch, DTP, NCI, 2024).

Tested on: 379773-124-R-J2-PDC spheroid viability
Assay: Anticancer human tumor 379773-124-R-J2-PDC patient-derived endometrial carcinoma cell line growth inhibition [POLQ]
Settings: spheroids with HUVEC and MSC; for IC50: curve of first compound; for viability, T/C: stronger effect = lower value
Summary of the method: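 Patient-derived tumour cells were co-cultured with HUVEC and mesenchymal stem cells as multicellular spheroids at 37 °C. They were treated with POLQ inhibitors (novobiocin, ART-558, RP6685) alone or combined with other agents. Top concentrations were at or near clinical Cmax (otherwise 10 microM; SN-38 at 1 microM), decreasing in half-log steps.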

[1] = second compound 0.0316 µM, first compound 0.0316 µM
[2] = second compound 0.0316 µM, first compound 0.1 µM
[3] = second compound 0.0316 µM, first compound 0.316 µM
[4] = second compound 0.0316 µM, first compound 1 µM
[5] = second compound 0.0316 µM, first compound 3.16 µM
[6] = second compound 0.0316 µM, first compound 10 µM
[7] = second compound 0.1 µM, first compound 0.0316 µM
[8] = second compound 0.1 µM, first compound 0.1 µM
[9] = second compound 0.1 µM, first compound 0.316 µM
[10] = second compound 0.1 µM, first compound 1 µM
[11] = second compound 0.1 µM, first compound 3.16 µM
[12] = second compound 0.1 µM, first compound 10 µM
[13] = second compound 0.316 µM, first compound 0.0316 µM
[14] = second compound 0.316 µM, first compound 0.1 µM
[15] = second compound 0.316 µM, first compound 0.316 µM
[16] = second compound 0.316 µM, first compound 1 µM
[17] = second compound 0.316 µM, first compound 3.16 µM
[18] = second compound 0.316 µM, first compound 10 µM
[19] = second compound 1 µM, first compound 0.0316 µM
[20] = second compound 1 µM, first compound 0.1 µM
[21] = second compound 1 µM, first compound 0.316 µM
[22] = second compound 1 µM, first compound 1 µM
[23] = second compound 1 µM, first compound 3.16 µM
[24] = second compound 1 µM, first compound 10 µM
[25] = second compound 3.16 µM, first compound 0.0316 µM
[26] = second compound 3.16 µM, first compound 0.1 µM
[27] = second compound 3.16 µM, first compound 0.316 µM
[28] = second compound 3.16 µM, first compound 1 µM
[29] = second compound 3.16 µM, first compound 3.16 µM
[30] = second compound 3.16 µM, first compound 10 µM
[31] = second compound 10 µM, first compound 0.0316 µM
[32] = second compound 10 µM, first compound 0.1 µM
[33] = second compound 10 µM, first compound 0.316 µM
[34] = second compound 10 µM, first compound 1 µM
[35] = second compound 10 µM, first compound 3.16 µM
[36] = second compound 10 µM, first compound 10 µM
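Note: spheroids exposed to drugs for seven days before readout.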
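Throughout, for viability, T/C: percent viability relative to DMSO vehicle control taken as 100%.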

`CCCS(=O)(=O)Nc1ccc(F)c(C(=O)c2c[nH]c3ncc(-c4ccc(Cl)cc4)cc23)c1F` + Cc1cccc(N(C)C(=O)C2C(O)CCN2c2nc(C)cc(C(F)(F)F)c2C#N)c1 showed an IC50 (second compound 0.0316 µM) of over 10 µM, an IC50 (second compound 0.1 µM) of over 10 µM and an IC50 (second compound 0.316 µM) of over 10 µM. It also gave an IC50 (second compound 1 µM) of over 10 µM, an IC50 (second compound 3.16 µM) of over 10 µM and an IC50 (second compound 10 µM) of over 10 µM. It also gave a viability, T/C [1] of 88.6%, a viability, T/C [2] of 102% and a viability, T/C [3] of 90.9%. It also gave a viability, T/C [4] of 99.4%, a viability, T/C [5] of 82.1% and a viability, T/C [6] of 62.3%. It also gave a viability, T/C [7] of 101%, a viability, T/C [8] of 89.5% and a viability, T/C [9] of 95.2%. The viability, T/C [10] was 87.4%, the viability, T/C [11] was 86.6% and the viability, T/C [12] was 58.7%. For the same molecule, the viability, T/C [13] was 97.4%, the viability, T/C [14] was 98.5% and the viability, T/C [15] was 94.9%. It also gave a viability, T/C [16] of 87.1%, a viability, T/C [17] of 78.5% and a viability, T/C [18] of 60.1%. For the same molecule, the viability, T/C [19] was 98.9%, the viability, T/C [20] was 88.7% and the viability, T/C [21] was 85.2%. It also gave a viability, T/C [22] of 86.5%, a viability, T/C [23] of 80.3% and a viability, T/C [24] of 64.3%. The viability, T/C [25] was 92%, the viability, T/C [26] was 90.4% and the viability, T/C [27] was 85.7%. It also gave a viability, T/C [28] of 85.3%, a viability, T/C [29] of 73.8% and a viability, T/C [30] of 63%. The viability, T/C [31] was 89.9%, the viability, T/C [32] was 92.1% and the viability, T/C [33] was 87.7%. The viability, T/C [34] was 83.9%, the viability, T/C [35] was 77.8% and the viability, T/C [36] was 53.9%.
`CC1COCCN1c1cc(C2(O)CC3CCC(C2)O3)c2cnn(-c3ccn[nH]3)c2n1` (stereo unspecified) + Cc1cccc(N(C)C(=O)C2C(O)CCN2c2nc(C)cc(C(F)(F)F)c2C#N)c1 was tested, and the IC50 (second compound 0.0316 µM) was 0.0826 µM, the IC50 (second compound 0.1 µM) was 0.0926 µM and the IC50 (second compound 0.316 µM) was 0.0827 µM. It also gave an IC50 (second compound 1 µM) of 0.0961 µM, an IC50 (second compound 3.16 µM) of 0.0683 µM and an IC50 (second compound 10 µM) of 0.0681 µM. The viability, T/C [1] was 75.6%, the viability, T/C [2] was 45.4% and the viability, T/C [3] was 14.1%. For the same molecule, the viability, T/C [4] was 12.7%, the viability, T/C [5] was 7.12% and the viability, T/C [6] was 2.45%. The viability, T/C [7] was 82.8%, the viability, T/C [8] was 48.1% and the viability, T/C [9] was 15.9%. For the same molecule, the viability, T/C [10] was 11.5%, the viability, T/C [11] was 7.15% and the viability, T/C [12] was 2.96%. It also gave a viability, T/C [13] of 84.9%, a viability, T/C [14] of 43.2% and a viability, T/C [15] of 11.8%. It also gave a viability, T/C [16] of 9.19%, a viability, T/C [17] of 6.89% and a viability, T/C [18] of 2.54%. The viability, T/C [19] was 80.8%, the viability, T/C [20] was 49% and the viability, T/C [21] was 12.2%. It also gave a viability, T/C [22] of 10.9%, a viability, T/C [23] of 7% and a viability, T/C [24] of 2.13%. The viability, T/C [25] was 70.6%, the viability, T/C [26] was 40.2% and the viability, T/C [27] was 15.1%. For the same molecule, the viability, T/C [28] was 9.34%, the viability, T/C [29] was 7.31% and the viability, T/C [30] was 2.13%. The viability, T/C [31] was 68.3%, the viability, T/C [32] was 41.5% and the viability, T/C [33] was 15.1%. For the same molecule, the viability, T/C [34] was 10.8%, the viability, T/C [35] was 7.1% and the viability, T/C [36] was 1.64%.
With `CCc1cc2c(N3CCc4c(cc(Cn5ccnc5)cc4-c4cn(C)nc4C(F)(F)F)C3=O)cc(C)nc2c(OC)n1` + Nc1ccc(C#CCN(C(=O)Cc2ncc(C(F)(F)F)cc2C(F)(F)F)c2ccc(F)cc2)nn1 the IC50 (second compound 0.0316 µM) was over 10 µM, the IC50 (second compound 0.1 µM) was 6.39 µM and the IC50 (second compound 0.316 µM) was 4.84 µM. The IC50 (second compound 1 µM) was 9.88 µM, the IC50 (second compound 3.16 µM) was over 10 µM and the IC50 (second compound 10 µM) was over 10 µM. The viability, T/C [1] was 75.7%, the viability, T/C [2] was 78.4% and the viability, T/C [3] was 61.9%. It also gave a viability, T/C [4] of 60.9%, a viability, T/C [5] of 64.3% and a viability, T/C [6] of 48.9%. The viability, T/C [7] was 66.9%, the viability, T/C [8] was 81.1% and the viability, T/C [9] was 65.3%. It also gave a viability, T/C [10] of 62.2%, a viability, T/C [11] of 55.7% and a viability, T/C [12] of 46.4%. The viability, T/C [13] was 74.3%, the viability, T/C [14] was 73% and the viability, T/C [15] was 66.6%. It also gave a viability, T/C [16] of 62.3%, a viability, T/C [17] of 52.1% and a viability, T/C [18] of 44.7%. It also gave a viability, T/C [19] of 77.5%, a viability, T/C [20] of 68.8% and a viability, T/C [21] of 66.2%. The viability, T/C [22] was 61.6%, the viability, T/C [23] was 52.4% and the viability, T/C [24] was 50.6%. For the same molecule, the viability, T/C [25] was 82.2%, the viability, T/C [26] was 67.6% and the viability, T/C [27] was 67.2%. For the same molecule, the viability, T/C [28] was 64.7%, the viability, T/C [29] was 57.9% and the viability, T/C [30] was 51.8%. For the same molecule, the viability, T/C [31] was 74.5%, the viability, T/C [32] was 68.2% and the viability, T/C [33] was 70.7%. For the same molecule, the viability, T/C [34] was 56%, the viability, T/C [35] was 56.4% and the viability, T/C [36] was 51.8%.
